Legend:
HepG2 cells [1] = assay: Subcellular localization and degradation of α-DNP antibody endocytosed with DNP-GN3 (microscopy, western blotting); type: cell-based, human
Method: In addition, western blotting with an antibody directed to Alexa Fluor 488 was used to determine if endocytosed fluorescently labeled α-DNP antibodies are degraded in vitro. […] Signal arising from Alexa Fluor 488 in cell lysates was associated with only full-length antibody after two hours of incubation. After six hours, a lower molecular weight fluorophore-associated protein fragment between 37 and 50 kDa began to appear. An additional protein fragment with a molecular weight between 25 and 37 kDa was observed after 24 hours. […] Together with the above immunofluorescence studies showing the colocalization of α-DNP antibody-derived fluorescence with lysosomes, these studies support that α-DNP antibody degradation is mediated by lysosomal proteases. Lysosomal degradation is further consistent with a mechanism dependent on ASGPR.

HepG2 cells [2] = assay: DNP-AF3-mediated α-DNP antibody endocytosis by HepG2 cells (flow cytometry); type: cell-based, human; details: α-DNP antibody 1 nM
Method: The intracellular fluorescence of cells that were incubated at 37° C. with both fluorescently labeled α-DNP antibody and DNP-AF3 for a given amount of time was examined. Cells were then washed, removed from the plate with trypsin, and subjected to flow cytometry.
It was then determined if reagents which inhibit ternary complex formation inhibit endocytosis mediated by DNP-AF3.
Next, whether inhibitors of specific endocytic pathways inhibited α-DNP antibody endocytosis was determined (FIG. 106).

PC3 cells = assay: PC3 human prostate cancer cell tumor model in mice; type: in vivo; details: for tumor growth: FIG. 138
Method: The ability of MIF-GN3 to mediate the depletion of MIF in a therapeutically relevant disease model was investigated. […] An experiment was conducted to determine whether the bifunctional molecule MIF-GN3 can deplete sufficient human MIF from serum to slow PC3 tumor growth. Mice were injected with an aliquot of PC3 cells, and the size of the resultant tumors as well as the levels of human MIF in serum were monitored over five weeks. […] Five weeks after the initial PC3 cell injection, the first of the mice reached maximal tumor size ([…]) and was sacrificed (FIG. 138). […] The decrease in human MIF levels mediated by MIF-GN3 is consistent with a mechanism of action in which MIF-GN3 mediates the depletion and degradation of circulating MIF protein. While the α-MIF antibody would not necessarily be expected to decrease the levels of human MIF, it is possible that the antibody mediates MIF neutralization in a manner which masks its signal as determined by ELISA. Alternatively, the α-MIF antibody may mediate depletion or degradation of huMIF by some endocytic mechanism. Another possible explanation is that the α-MIF antibody decrease serum levels of active human MIF to such an extent at early time points that PC3 cells proliferate much more slowly, and therefore fewer cells are actively secreting human MIF.
Mice were sacrificed when their tumor volumes reached 1000 mm^3. […] At this same time point, less than 25% of the mice in any other arm had survived.

human MIF = biological target: T1, human MIF (Homo sapiens, UniProt P14174); assay: Depletion of injected recombinant human MIF from serum in mice; type: in vivo; parameters: injected into mice; details: for depletion of human MIF protein from serum: 30 minutes, FIG. 135
T1 sequence (P14174 2-115 limits assumed): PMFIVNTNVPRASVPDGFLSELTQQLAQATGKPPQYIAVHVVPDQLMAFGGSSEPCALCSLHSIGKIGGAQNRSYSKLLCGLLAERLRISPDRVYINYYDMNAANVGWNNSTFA
Method: In vivo human MIF depletion experiments were undertaken to determine whether MIF-GN3 can mediate the depletion of injected recombinant human MIF from serum in mice. Mice were injected with five μg of the human MIF protein. In this experiment, one group of mice was also injected with a single 10 mpk dose of MLF-GN3 along with human MIF protein. It was observed that after four hours, the average level of human MIF in serum in the PBS-treated mice was 1.76 ng/mL (FIG. 134). In mice treated with 10 mpk MIF-GN3, however, the concentration of human MIF in serum was 0.68 ng/mL. One day after the initial injection, human MIF levels had reached background levels for both conditions. […] It was hypothesized that, due to the short half-life of human MIF in serum, investigating human MIF levels at earlier time points may be more informative.
Next, an experiment was performed to determine whether MIF-GN3 could enhance MIF clearance at time points earlier than four hours. Mice were coinjected with recombinant human MIF and 10 mpk MIF-GN3 via either i.p. or i.v. routes. For the PBS control arms, human MIF was injected with PBS. It was observed that in the absence of MIF-GN3, there was a spike in huMIF levels in circulation after 30 minutes (FIG. 135). In the presence of MIF-GN3, however, levels of MIF protein remained low at 30 minutes and no spike in its concentration was observed. By two hours, the levels of human MIF in circulation decreased to background levels.
In a further experiment, whether an inhibitor of the MIF protein (3w) is able to mediate the protein's depletion from serum was determined. A bifunctional molecule that mediates the depletion of α-DNP antibody from serum was also assayed as a negative control. Neither of these molecules was expected to mediate the formation of a ternary complex between human MIF protein and ASGPR.

α-DNP antibody = assay: In vivo depletion of α-DNP antibody from serum in mice (ELISA); details: for serum α-DNP antibody levels compared to PBS: FIG. 94; for α-DNP antibody depleted from serum 24 hours after a single dose: vehicle control 24%
Method: FIG. 94 illustrates that serum levels of α-DNP antibody decrease more rapidly following repeated treatment with DNP-GN3. Serum antibody levels were measured using an ELISA assay. Each experimental group contained three mice. Statistical differences in experiments involving in vivo depletion of α-DNP antibody were assessed by repeated measures two-way ANOVA with Tukey's tests for post-hoc comparison of simple effects between each of the treatment groups and PBS.
Single doses of DNP-GN3 were also found to be efficacious at mediating α-DNP antibody depletion, albeit less effectively than daily dosing (FIG. 96). […] Therefore, it was concluded that DNP-GN3 is able to mediate the depletion of a monoclonal antibody from serum, and functions across a wide range of target protein concentrations and dosing regimens.
DNP-GN3 was also found to be efficacious in depleting polyclonal α-DNP antibody from serum collected from mice immunized with DNP-keyhole limpet haemocyanin (KLH) (FIG. 97). […] Thus, the small molecule DNP-GN3 is not restricted in function to only monoclonal mouse antibodies, but is also effective at removing polyclonal α-DNP antibodies from circulation in mice.

[3] = MIF-GN3 at 10 mpk, control arms DNP-GN3 and 3w

## CC(=O)NC1C(OCCOCCOCCNC(=O)CCOCC(COCCC(=O)NCCOCCOCCOC2OC(CO)C(O)C(O)C2NC(C)=O)(COCCC(=O)NCCOCCOCCOC2OC(CO)C(O)C(O)C2NC(C)=O)NC(=O)CNC(=O)COCCOCCOCCNc2ccc([N+](=O)[O-])cc2[N+](=O)[O-])OC(CO)C(O)C1O (stereo not drawn) [DNP-GN3]
HepG2 cells [1]; after 12 hours, FIG. 91B
  colocalization of endocytosed α-DNP antibody with lysosome membrane protein LAMP2: strong colocalization
HepG2 cells [1]; cell lysates, 2 to 24 hours, FIG. 92A
  degradation of endocytosed α-DNP antibody (western blot for Alexa Fluor 488): endocytosed α-DNP antibody is degraded in HepG2 cells
HepG2 cells [2]
  uptake of α-DNP antibody at low target protein concentration: not effective
PC3 cells; [3]
  tumor growth: not found to decrease tumor growth
Human MIF; control molecules injected along with human MIF, FIG. 136
  human MIF concentration in serum compared to the PBS control: no significant decreases
α-DNP antibody; 200 μg monoclonal mouse IgG2 α-DNP antibody, daily and twice-daily 1 mpk, 21 days, nude mice
  serum α-DNP antibody levels compared to PBS: significantly reduced
α-DNP antibody; 1 mpk, FIG. 96
  α-DNP antibody depleted from serum 24 hours after a single dose: 52%
α-DNP antibody; 10 mpk, FIG. 96
  α-DNP antibody depleted from serum 24 hours after a single dose: 34%
α-DNP antibody; 100 mpk, FIG. 96
  α-DNP antibody depletion after a single dose: Significant depletion
α-DNP antibody; i.p. injection, FIG. 79A
  degradation of injected anti-DNP IgG antibodies in mouse serum: can induce degradation
α-DNP antibody; initial antibody dose of 500 μg, daily treatment
  serum α-DNP antibody levels compared to PBS: significant decrease
α-DNP antibody; mice immunized with DNP-KLH, daily treatment, each time point, FIG. 97
  depletion of polyclonal α-DNP antibody from serum compared to PBS: significantly more polyclonal α-DNP antibody was removed

## CC(=O)N[C@H]1[C@H](OCCOCCOCCNC(=O)CCOCC(COCCC(=O)NCCOCCOCCO[C@@H]2O[C@H](CO)[C@H](O)[C@H](O)[C@H]2NC(C)=O)(COCCC(=O)NCCOCCOCCO[C@@H]2O[C@H](CO)[C@H](O)[C@H](O)[C@H]2NC(C)=O)NC(=O)CNC(=O)CCCOc2ccc3nc(-c4cn(-c5ccc(O)c(F)c5)nn4)ccc3c2)O[C@H](CO)[C@H](O)[C@@H]1O [MIF-GN3]
PC3 cells; MIF-GN3 1 mpk, α-MIF antibody arm, FIG. 139
  levels of human MIF protein in the serum: decreased levels
PC3 cells; [3]
  tumor growth: not found to decrease tumor growth
PC3 cells; MIF-GN3 at a dose of 1 mpk, α-MIF antibody arm
  tumor growth: delay in tumor growth
PC3 cells; eight weeks after the initial PC3 cell injection, MIF-GN3 1 mpk, FIG. 140
  survival: 80%
Human MIF; 10 mpk coinjected i.p.
  depletion of human MIF protein from serum: significant depletion
Human MIF; 10 mpk coinjected i.v.
  depletion of human MIF protein from serum: significant depletion
Human MIF; one mpk, 40 and 60 minute time points, FIG. 136
  human MIF levels in serum compared to the PBS control: significant decrease
Human MIF; single 10 mpk dose with five μg human MIF, after four hours, PBS-treated 1.76 ng/mL, difference not significant, FIG. 134
  concentration of human MIF in serum: 0.68 ng/mL
Human MIF; ten mpk, 40 and 60 minutes, FIG. 136
  human MIF levels in serum compared to the PBS control: significant decreases
